Assay results reported in patent US20010051630A1, “Use of hydroxylamine derivatives, and method and preparations for increasing the tolerance of field crops against weather stresses” (priority 1997, published 2001).
Marks after values point to notes of the source that are not given here.

Key:
Mo 17 inbred maize line = assay: CSVT (Complex Stressing Vigour Test), seeds soaked in active agent, Mo 17 maize; format: in vivo; conditions: seeds soaked in 10 mg/l active agent, * = significant vs control P < 0.05
Method: (§1) In this experiment the tolerance of maize, soybean and pepper seeds treated with the active agent against cold was tested. This test imposed temperature and oxygen deficiency stresses on the seeds and was carried out according to Barla-Szabó and Dolinka CSVT (Complex Stressing Vigour Test). For a single test, two hundred seeds were soaked for 48 hours at 25° C. and another 48 hours at 5° C in 150 ml distilled water containing the active agent in 10 mg/l concentration. Following the 96 hours of soaking, the seeds were further germinated between rolled wet paper for 96 hours at 25° C. There were 25 seeds in each roll, the rolls were placed vertically into containers and covered with a plastic bag in order to reduce evaporation. During the whole procedure the seeds were kept in darkness. At the end of the experiment the number of normally developing and ungerminated seeds were recorded. The length of the normal seedlings was measured and the average length of the five longest seedlings was calculated. Seedlings longer than 0.33 times the average length of the five longest seedlings were considered to be of high vigour, and low vigour seedlings were shorter than this length.

HMv09 inbred maize line = assay: CSVT, seeds soaked in active agent, HMv09 maize; format: in vivo; conditions: seeds soaked in 10 mg/l active agent
Method: as §1

[1] = test system: maize of low chilling tolerance (LT) population; assay: CSVT, maize population of low chilling tolerance (LT); format: in vivo
Method: as §1, with “darkness.” for “darkness. At the end of the experiment the number of normally developing and ungerminated seeds were recorded. The length of the normal seedlings was measured and the average length of the five longest seedlings was calculated. Seedlings longer than 0.33 times the average length of the five longest seedlings were considered to be of high vigour, and low vigour seedlings were shorter than this length.”
(§2) At the end of the experiment the number of normally developing and ungerminated seeds were recorded. The length of the normal seedlings was measured and the average length of the five longest seedlings was calculated. Seedlings longer than 0.33 times the average length of the five longest seedlings were considered to be of high vigour, and low vigour seedlings were shorter than this length.
In the case of a further experiment with maize of low chilling tolerance (LT) and high chilling tolerance (HT) populations [Ref: P. Landi, E. Frascaroli, A. Lovato; EUPHYTICA 64 21-29 (1992)], the following positive effects were found (Table 3.).

McCall soybeans = assay: CSVT, McCall soybeans; format: in vivo, soybean
Method: as §1, with “darkness.” for “darkness. At the end of the experiment the number of normally developing and ungerminated seeds were recorded. The length of the normal seedlings was measured and the average length of the five longest seedlings was calculated. Seedlings longer than 0.33 times the average length of the five longest seedlings were considered to be of high vigour, and low vigour seedlings were shorter than this length.”
as §2
When applying the CSVT test, the following results were obtained (Table 4.).

green peppers = assay: CSVT, green peppers; format: in vivo, pepper
Method: as §1, with “darkness.” for “darkness. At the end of the experiment the number of normally developing and ungerminated seeds were recorded. The length of the normal seedlings was measured and the average length of the five longest seedlings was calculated. Seedlings longer than 0.33 times the average length of the five longest seedlings were considered to be of high vigour, and low vigour seedlings were shorter than this length.”
as §2
Under the circumstances of the CSVT test, they increased the length of the sprouts and the roots along with the proportion of the high vigour seedlings. […]

soybean cv. Bólyi 44 [2] = assay: Drought tolerance of soybeans; format: in vivo; conditions: 6 days hardening; 50 mg/liter in the water; 4 days without watering, one week regeneration
Method: Soybeans of soybean cv. Bólyi 44 were hardened for 6 days by withholding the water. This was followed by two days of watering, and the active agent was applied in the water. The concentration of the solution of the active agent was 50 mg/liter. After a 4-day-long cease of watering and a one week regeneration period, the number of surviving plants was recorded.
Watering was ceased for 10 days for a certain group of plants in the experiment. It was observed that almost every plant perished. Each of the 4 surviving plants had previously been treated with the active agent.

Mo 17 maize inbred line = assay: Chilling tolerance of maize in a gradient chamber; format: in vivo
Method: The experiment was performed using the Mo 17 maize inbred line. The seeds were coated with a 2% solution of the examined compound dissolved in 2 ml polyvinylalcohol before germination, where the above quantity of solution is applied for 100 seeds. The seeds were germinated for 3 days wrapped in wet filter paper, they were sown and then cultivated in gradient chamber for 6 weeks. In the gradient chamber, the temperature was maintained on a scale between 18 and 12° C., with differences of 1° C. This was followed by a one week regeneration at 23/20° C. temperature.
In the experiment, the length of the plants was measured 16, 31 and 43 days after the sowing, and at the end of the experiment the fresh weight of the plants was measured. The experiment was performed on 4 plants at each temperature and by each treatment.

soybean cv. Bólyi 44 [3] = assay: Field soybean cultivation, yield; format: in vivo
Method: The experiment was performed using soybean cv. Bólyi 44. Before sowing, the seeds were treated with Rhyzobium Japonicum nitrogen-binding bacterium, which forms a root nodule providing 50-70% of the nitrogen demand of the plant.
The examined compounds were applied by pearling the seeds; 1 ml of pearling agent containing 1 mg of active agent in a 5% aqueous PVA solution was used for 100 seeds.
The plants were sown after soil preparation in the autumn, using a crop rotation system, 3-5 cm deep in the ground, with a 45-50 cm row distance, a 5 cm plant distance and 450,000-500,000 plant/ha density. The date of sowing was Apr. 15, 1997. During the development of the plant, the usual cultivation procedures were followed and the usual pesticides were used. The harvest took place in September-October, with the water content of the grains being between 16-18%.

## CC(C)(C)NCC(O)CONC(=O)c1cccc(C(F)(F)F)c1.Cl (stereo not drawn) [Compound 1, N-[2-hydroxy-3-(1,1-dimethylethyl-amino)propoxy]-3-trifluoromethyl-benzamide monohydrochloride]
Mo 17 inbred maize line
  Ratio of high vigour plants (%): 29* %
HMv09 inbred maize line
  Ratio of high vigour plants (%): 49* %
[1]
  Ratio of high vigour plants %, LT: 94* %
McCall soybeans
  Ratio of high vigour plants (%): 43* %
Green peppers
  Ratio of high vigour plants (%): 47* %
Soybean cv. Bólyi 44 [2]
  Survival (%): 25* %
Mo 17 maize inbred line; 12° C., 16 days
  Length (cm): 5.0 cm
Mo 17 maize inbred line; 12° C., 31 days
  Length (cm): 7.9 cm
Mo 17 maize inbred line; 12° C., 43 days
  FW (g), fresh weight: 1.2 g
  Length (cm): 18.9 cm
Mo 17 maize inbred line; 13° C., 16 days
  Length (cm): 6.0 cm
Mo 17 maize inbred line; 13° C., 31 days
  Length (cm): 10.1 cm
Mo 17 maize inbred line; 13° C., 43 days
  FW (g), fresh weight: 1.0 g
  Length (cm): 16.0 cm
Mo 17 maize inbred line; 14° C., 16 days
  Length (cm): 7.6 cm
Mo 17 maize inbred line; 14° C., 31 days
  Length (cm): 15.4 cm
Mo 17 maize inbred line; 14° C., 43 days
  FW (g), fresh weight: 2.7 g
  Length (cm): 25.9 cm
Mo 17 maize inbred line; 15° C., 16 days
  Length (cm): 10.0 cm
Mo 17 maize inbred line; 15° C., 31 days
  Length (cm): 17.7 cm
Mo 17 maize inbred line; 15° C., 43 days
  FW (g), fresh weight: 3.6 g
  Length (cm): 28.5 cm
Mo 17 maize inbred line; 16° C., 16 days
  Length (cm): 15.2 cm
Mo 17 maize inbred line; 16° C., 31 days
  Length (cm): 24.8 cm
Mo 17 maize inbred line; 16° C., 43 days
  FW (g), fresh weight: 4.5 g
  Length (cm): 32.3 cm
Mo 17 maize inbred line; 17° C., 16 days
  Length (cm): 17.0 cm
Mo 17 maize inbred line; 17° C., 31 days
  Length (cm): 27.7 cm
Mo 17 maize inbred line; 17° C., 43 days
  FW (g), fresh weight: 5.5 g
  Length (cm): 36.5 cm
Mo 17 maize inbred line; 18° C., 16 days
  Length (cm): 13.2 cm
Mo 17 maize inbred line; 18° C., 31 days
  Length (cm): 28.4 cm
Mo 17 maize inbred line; 18° C., 43 days
  FW (g), fresh weight: 6.0 g
  Length (cm): 37.0 cm
Soybean cv. Bólyi 44 [3]; seeds pearled with 1 mg active agent in 1 ml 5% PVA per 100 seeds
  Weight of the crop (kg/m^2): 0.55 kg/m^2
Soybean cv. Bólyi 44 [3]; weight of the crop
  Improvement compared to the control (%): 22.2%
